{
  "source": "patent US20110263520A1",
  "about": "“COMPOSITION FOR USE IN CONTROLLING HARMFUL ORGANISMS THAT CONTAINS 16-KETO ASPERGILLIMIDE” (priority 2008, published 2011)",
  "key": {"[1]": {"tested_on": "Haemaphysalis longicornis", "experiment": "Tickcidal effect against Haemaphysalis longicornis, dry film in glass vial (Test Example 5)", "type": "in vivo", "details": "for pest or weed control at 1.5 ppm: other agent 1.5 ppm alone (16-keto aspergillimide 0 ppm); for pest or weed control at 3 ppm: other agent 3 ppm alone (16-keto aspergillimide 0 ppm); for pest or weed control at 30 ppm: other agent 30 ppm alone (16-keto aspergillimide 0 ppm); for Death rate (%): Table 10; for Theoretical value (%) by Colby's formula: Table 12", "description": "Acetone solutions (30 μl) adjusted to predetermined concentrations were placed in 4 mL-volume glass vials. The vials were placed on a shaker, and a dry film of the compound was prepared on the inner wall of the vials. The vials were dried for 24 hr or more. Larvae (10 or more heads) were released in the vials, and the vials were lidded. The vials were then left to stand in a humidistat chamber (25° C., humidity 85%, fully darkened conditions). […] The test was duplicated.\n(§1) Colby's formula: Theoretical value (%)=100−(A×B)/100"}, "Laodelphax striatellus [2]": {"tested_on": "Laodelphax striatellus", "experiment": "Root dipping application test, Laodelphax striatellus (Reference Test Example 1)", "type": "in vivo", "details": "0.5 μg/seedling, wheat seedlings, 3 days after release", "source_text": "A test solution adjusted to a predetermined concentration (10% aqueous acetone solution) was applied to the root of wheat seedlings in water culture. […] The test was duplicated.\nAs is apparent from Table 15, the systemic insecticidal activity of 16-keto aspergillimide was much higher than that of a control compound, Asperparaline A.\nThe 16-keto aspergillimide and Asperparaline A used in this test were obtained according to methods described in The Journal of Antibiotics, 1997, 50(10), 840-846. This is true of the following test examples."}, "Laodelphax striatellus [3]": {"tested_on": "Laodelphax striatellus", "experiment": "Foliage application test for Laodelphax striatellus (Test Example 2)", "type": "in vivo", "details": "other insecticide 0.313 ppm alone (16-keto aspergillimide 0 ppm); for Death rate (%): foliage application, 3 days after release", "source_text": "as §1"}, "Laodelphax striatellus [4]": {"tested_on": "Laodelphax striatellus", "experiment": "Laodelphax striatellus soil drenching application test (Test Example 1)", "details": "for Death rate (%): soil drenching, 3 days after release", "protocol": "Test solutions adjusted to a predetermined concentration (10% aqueous acetone solution) were applied to rice seedling in a pot by soil drenching. The rice seedling was allowed to stand for 3 days. Second instar larvae were released and was then allowed to stand in a humidistat chamber (light period 16 hr−dark period 8 hr) (25° C.).\nDeath rate (%)={number of dead larvae/(number of survived larvae+number of dead larvae)}×100\nwherein A: 100−(death rate when application was performed only with 16-keto aspergillimide); and"}, "[5]": {"tested_on": "Nilaparvata lugens which is low-sensitive to imidacloprid", "experiment": "Foliage application test for Nilaparvata lugens, imidacloprid low-sensitive strain (Test Example 4)", "type": "in vivo", "details": "low-sensitive strain, 6 days after release", "description": "(§2) Test solutions adjusted to a predetermined concentration (50% aqueous acetone solution) applied to rice seedlings in a pot for foliage application. […] The test was duplicated.\n(§3) For comparison, a test was carried out in the same manner as described above, except that a Nilaparvata lugens strain which is highly sensitive to imidacloprid was used.\n(§4) Regarding the origin of the test insect pests, Nilaparvata lugens which is low-sensitive to imidacloprid was an insect which had been collected outdoors in Kumamoto Prefecture, 2007, and Nilaparvata lugens which is sensitive to imidacloprid was an insect which had been collected in Kagoshima Prefecture and was then subjected to indoor successive raising."}, "[6]": {"tested_on": "Nilaparvata lugens which is sensitive to imidacloprid", "experiment": "Foliage application test for Nilaparvata lugens, imidacloprid-sensitive strain (Test Example 4, comparison)", "type": "in vivo", "details": "6 days after release", "description": "as §2, §3, §4"}, "[7]": {"tested_on": "Haemaphysalis longicornis", "experiment": "Tickicidal effect against Haemaphysalis longicornis on body surface of mouse (Test Example 6)", "type": "in vivo", "details": "other agent 6 μg/2 cm^2 alone (16-keto aspergillimide 0 μg/2 cm^2)", "description": "Skin hair on the back of mouse (ICR, male, 5 week olds) was clipped in a diameter of about 2 cm, and a 15-mL polystyrene conical tube cut to have a height of about 1.5 cm was bonded to the body surface of the mouse with an instant adhesive. Test solutions (20 μl) adjusted with ethanol were dropped on the body surface of mice within the bonded tube. After thorough drying, larvae (10 or more heads) were released within the tube, and the tube was lidded. […] The test was hexaplicated.\nas §1"}, "[8]": {"details": "Haemaphysalis longicornis, 48 h, read-out: Death rate (%), Table 9, 2 days after release"}, "[9]": {"details": "other insecticide 0.002 mg/seedling alone (16-keto aspergillimide 0 mg/seedling)"}, "[10]": {"details": "treatment concentration 1.25 ppm"}, "[11]": {"details": "other insecticide 0.005 mg/seedling alone (16-keto aspergillimide 0 mg/seedling)"}},
  "note": "Like-named read-outs stand apart in the source and are kept apart here.",
  "data": [
    {"compound": "C/C(=N\\C#N)N(C)Cc1ccc(Cl)nc1", "note": "[Acetamiprid, acetamiprid]", "values": [
      {"measurement": "pest or weed control at 1.5 ppm", "setting": "[1]; [8]", "value": 24, "unit": "%"},
      {"measurement": "pest or weed control at 3 ppm", "setting": "[1]; [8]", "value": 55, "unit": "%"}
    ]},
    {"compound": "C[C@H]1CCN2C[C@@]34C[C@]5(CC(=O)N(C)C5=O)C(C)(C)[C@@H]3C[C@]12C(=O)N4C", "note": "[Asperparaline A, reference compound]", "values": [
      {"measurement": "Death rate (%) for each amount of test chemical compound", "setting": "Laodelphax striatellus [2]", "value": 0, "unit": "%"}
    ]},
    {"compound": "CN/C(=N\\[N+](=O)[O-])NCc1cnc(Cl)s1", "note": "[Clothianidin, clothianidin]", "values": [
      {"measurement": "Theoretical value (%) calculated by the Colby's formula", "setting": "Laodelphax striatellus [3]", "value": 4, "unit": "%"},
      {"measurement": "Death rate (%)", "setting": "Laodelphax striatellus [3]", "value": 4, "unit": "%"},
      {"measurement": "pest or weed control at 5 ppm", "setting": "[1]; Haemaphysalis longicornis, 48 h, read-out: Death rate (%), Table 10, other agent 5 ppm alone (16-keto aspergillimide 0 ppm), 2 days after release", "value": 35, "unit": "%"},
      {"measurement": "pest or weed control at 10 ppm", "setting": "[1]; Haemaphysalis longicornis, 48 h, read-out: Death rate (%), Table 10, other agent 10 ppm alone (16-keto aspergillimide 0 ppm), 2 days after release", "value": 62, "unit": "%"}
    ]},
    {"compound": "CN/C(=N/CC1CCOC1)N[N+](=O)[O-]", "note": "(centres unmarked) [Dinotefuran, dinotefuran]", "values": [
      {"measurement": "pest or weed control at 30 ppm", "setting": "[1]; [8]", "value": 12, "unit": "%"},
      {"measurement": "pest or weed control at 50 ppm", "setting": "[1]; Haemaphysalis longicornis, 48 h, read-out: Death rate (%), Table 9, other agent 50 ppm alone (16-keto aspergillimide 0 ppm), 2 days after release", "value": 14, "unit": "%"},
      {"measurement": "Theoretical value (%) calculated by the Colby's formula", "setting": "Laodelphax striatellus [4]", "value": 4, "unit": "%"},
      {"measurement": "Death rate (%)", "setting": "Laodelphax striatellus [4]; [9]", "value": 4, "unit": "%"}
    ]},
    {"compound": "N#Cc1nn(-c2c(Cl)cc(C(F)(F)F)cc2Cl)c(N)c1[S+]([O-])C(F)(F)F", "note": "(centres unmarked) [Fipronil, fipronil]", "values": [
      {"measurement": "Theoretical value (%) calculated by the Colby's formula", "setting": "Laodelphax striatellus [3]", "value": 21, "unit": "%"},
      {"measurement": "Death rate (%)", "setting": "Laodelphax striatellus [3]", "value": 21, "unit": "%"},
      {"measurement": "Theoretical value (%) calculated by the Colby's formula", "setting": "Laodelphax striatellus [4]", "value": 5, "unit": "%"},
      {"measurement": "Death rate (%)", "setting": "Laodelphax striatellus [4]; [9]", "value": 5, "unit": "%"}
    ]},
    {"compound": "O=[N+]([O-])NC1=NCCN1Cc1ccc(Cl)nc1", "note": "[Imidacloprid, imidacloprid, reference compound]", "values": [
      {"measurement": "Theoretical value (%) calculated by the Colby's formula", "setting": "Laodelphax striatellus [3]", "value": 5, "unit": "%"},
      {"measurement": "Death rate (%)", "setting": "Laodelphax striatellus [3]", "value": 5, "unit": "%"},
      {"measurement": "Death rate (%)", "setting": "[5]; [10]", "value": 15, "unit": "%"},
      {"measurement": "Death rate (%)", "setting": "[5]; treatment concentration 5 ppm", "value": 55, "unit": "%"},
      {"measurement": "Death rate (%)", "setting": "[5]; treatment concentration 20 ppm", "value": 85, "unit": "%"},
      {"measurement": "Death rate (%)", "setting": "[6]; [10]", "value": 100, "unit": "%"},
      {"measurement": "Death rate (%)", "setting": "[6]; treatment concentration 5 ppm", "value": 100, "unit": "%"},
      {"measurement": "Death rate (%)", "setting": "[6]; treatment concentration 20 ppm", "value": 100, "unit": "%"},
      {"measurement": "pest or weed control at 1.5 ppm", "setting": "[1]; [8]", "value": 26, "unit": "%"},
      {"measurement": "pest or weed control at 3 ppm", "setting": "[1]; [8]", "value": 33, "unit": "%"},
      {"measurement": "Theoretical value (%) by Colby's formula", "setting": "[7]", "value": 22, "unit": "%"},
      {"measurement": "Death rate (%)", "setting": "[7]; mouse body surface, 3 days after release", "value": 22, "unit": "%"},
      {"measurement": "Theoretical value (%) calculated by the Colby's formula", "setting": "Laodelphax striatellus [4]; [11]", "value": 5, "unit": "%"},
      {"measurement": "Death rate (%)", "setting": "Laodelphax striatellus [4]; [11]", "value": 5, "unit": "%"}
    ]},
    {"compound": "CCN(Cc1ccc(Cl)nc1)/C(=C/[N+](=O)[O-])NC", "note": "[Nitenpyram, nitenpyram]", "values": [
      {"measurement": "pest or weed control at 40 ppm", "setting": "[1]; Haemaphysalis longicornis, 48 h, read-out: Death rate (%), Table 9, other agent 40 ppm alone (16-keto aspergillimide 0 ppm), 2 days after release", "value": 12, "unit": "%"}
    ]},
    {"compound": "CC(c1ccc(C(F)(F)F)nc1)S(C)(=O)=NC#N", "note": "(centres unmarked) [Sulfoxaflor, sulfoxaflor]", "values": [
      {"measurement": "pest or weed control at 75 ppm", "setting": "[1]; Haemaphysalis longicornis, 48 h, read-out: Death rate (%), Table 10, other agent 75 ppm alone (16-keto aspergillimide 0 ppm), 2 days after release", "value": 48, "unit": "%"},
      {"measurement": "pest or weed control at 150 ppm", "setting": "[1]; Haemaphysalis longicornis, 48 h, read-out: Death rate (%), Table 10, other agent 150 ppm alone (16-keto aspergillimide 0 ppm), 2 days after release", "value": 60, "unit": "%"}
    ]},
    {"compound": "CN1COCN(Cc2cnc(Cl)s2)/C1=N\\[N+](=O)[O-]", "note": "[Thiamethoxam, thiamethoxam]", "values": [
      {"measurement": "pest or weed control at 30 ppm", "setting": "[1]; Haemaphysalis longicornis, 48 h, read-out: Death rate (%), Table 10, 2 days after release", "value": 21, "unit": "%"},
      {"measurement": "pest or weed control at 60 ppm", "setting": "[1]; Haemaphysalis longicornis, 48 h, read-out: Death rate (%), Table 10, other agent 60 ppm alone (16-keto aspergillimide 0 ppm), 2 days after release", "value": 26, "unit": "%"}
    ]},
    {"compound": "ivermectin", "values": [
      {"measurement": "Death rate (%)", "setting": "[1]; other agent 200 ppm alone (16-keto aspergillimide 0 ppm), 2 days after release", "value": 0, "unit": "%"},
      {"measurement": "Death rate (%)", "setting": "[1]; other agent 400 ppm alone (16-keto aspergillimide 0 ppm), 2 days after release", "value": 0, "unit": "%"},
      {"measurement": "Theoretical value (%) by Colby's formula", "setting": "[1]; other agent 200 ppm alone (16-keto aspergillimide 0 ppm)", "value": 0, "unit": "%"},
      {"measurement": "Theoretical value (%) by Colby's formula", "setting": "[1]; other agent 400 ppm alone (16-keto aspergillimide 0 ppm)", "value": 0, "unit": "%"}
    ]}
  ]
}
